According to ChEMBL document CHEMBL1201862, “PubChem BioAssay data set” (2004):
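Protocol summary: plate cells (96-well), add compound at 5 concentrations, incubate 48 h, interpolate endpoints linearly. GI50 marks 50% less growth.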 Active and inactive are the calls of the source. No stated cut-off is given here; in the data, active = GI50 up to about 1.1 µM and inactive = higher.

Columns and labels:
Assay in all cases: inhibition of tumour cell growth, NCI panel, 48 h
SK-OV-3 = test system: SK-OV-3
NCI-H460 = test system: NCI-H460
COLO 205 = test system: COLO 205
IGROV-1 = test system: IGROV-1
A549 = test system: A549
SR = test system: SR
OVCAR-5 = test system: OVCAR-5
SK-MEL-5 = test system: SK-MEL-5
PC-3 = test system: PC-3
HOP-62 = test system: HOP-62
UACC-62 = test system: UACC-62
MCF7 = test system: MCF7
CCRF-CEM = test system: CCRF-CEM
MDA-N = test system: MDA-N
ACHN = test system: ACHN
TK-10 = test system: TK-10
K562 = test system: K562
OVCAR-8 = test system: OVCAR-8
HT-29 = test system: HT-29
NCI-H226 = test system: NCI-H226
MDA-MB-231 = test system: MDA-MB-231
NCI-H23 = test system: NCI-H23
NCI-H522 = test system: NCI-H522
SF-295 = test system: SF-295
DU-145 = test system: DU-145
SF-539 = test system: SF-539
Hs-578T = test system: Hs-578T
T47D = test system: T47D
SK-MEL-2 = test system: SK-MEL-2
NCI/ADR-RES = test system: NCI/ADR-RES
SNB-19 = test system: SNB-19
SW-620 = test system: SW-620
A498 = test system: A498
OVCAR-4 = test system: OVCAR-4
RPMI-8226 = test system: RPMI-8226
UACC-257 = test system: UACC-257
SN12C = test system: SN12C
Malme-3M = test system: Malme-3M
UO-31 = test system: UO-31
SNB-75 = test system: SNB-75
U-251 = test system: U-251
HCT-15 = test system: HCT-15
MOLT-4 = test system: MOLT-4
KM12 = test system: KM12
BT-549 = test system: BT-549
LOX IMVI = test system: LOX IMVI
EKVX = test system: EKVX
RXF 393 = test system: RXF 393
CAKI-1 = test system: CAKI-1
786-0 = test system: 786-0
MDA-MB-435 = test system: MDA-MB-435
HCT-116 = test system: HCT-116
HOP-92 = test system: HOP-92
SF-268 = test system: SF-268
HCC 2998 = test system: HCC 2998
M14 = test system: M14
HL-60 = test system: HL-60
SK-MEL-28 = test system: SK-MEL-28
OVCAR-3 = test system: OVCAR-3

## Nc1nc(=O)n(C2OC(CO)C(O)C2O)c2ncc(-c3ccc(-c4ccccc4)cc3)nc12 (configuration not stated)
SK-OV-3
  GI50: > 100 µM (inactive)
NCI-H460
  GI50: > 100 µM (inactive)
COLO 205
  GI50: > 100 µM (inactive)
IGROV-1
  GI50: > 100 µM (inactive)
A549
  GI50: > 100 µM (inactive)
SR
  GI50: 3.63 µM (inactive)
OVCAR-5
  GI50: > 100 µM (inactive)
SK-MEL-5
  GI50: > 100 µM (inactive)
PC-3
  GI50: > 100 µM (inactive)
HOP-62
  GI50: 60 µM (inactive)
UACC-62
  GI50: 66.4 µM (inactive)
MCF7
  GI50: 31.3 µM (inactive)
CCRF-CEM
  GI50: 9.62 µM (inactive)
MDA-N
  GI50: > 100 µM (inactive)
ACHN
  GI50: > 100 µM (inactive)
TK-10
  GI50: > 100 µM (inactive)
K562
  GI50: > 100 µM (inactive)
OVCAR-8
  GI50: > 100 µM (inactive)
HT-29
  GI50: > 100 µM (inactive)
NCI-H226
  GI50: 24.1 µM (inactive)
MDA-MB-231
  GI50: 21 µM (inactive)
NCI-H23
  GI50: > 100 µM (inactive)
NCI-H522
  GI50: > 100 µM (inactive)
SF-295
  GI50: > 100 µM (inactive)
DU-145
  GI50: > 100 µM (inactive)
SF-539
  GI50: > 100 µM (inactive)
Hs-578T
  GI50: > 100 µM (inactive)
T47D
  GI50: > 100 µM (inactive)
SK-MEL-2
  GI50: > 100 µM (inactive)
NCI/ADR-RES
  GI50: > 100 µM (inactive)
SNB-19
  GI50: 82.2 µM (inactive)
SW-620
  GI50: > 100 µM (inactive)
A498
  GI50: > 100 µM (inactive)
OVCAR-4
  GI50: > 100 µM (inactive)
RPMI-8226
  GI50: > 100 µM (inactive)
UACC-257
  GI50: > 100 µM (inactive)
SN12C
  GI50: > 100 µM (inactive)
Malme-3M
  GI50: > 100 µM (inactive)
UO-31
  GI50: > 100 µM (inactive)
SNB-75
  GI50: 28.4 µM (inactive)
U-251
  GI50: 31.3 µM (inactive)
HCT-15
  GI50: > 100 µM
MOLT-4
  GI50: > 100 µM (inactive)
KM12
  GI50: > 100 µM (inactive)
BT-549
  GI50: > 100 µM (inactive)
LOX IMVI
  GI50: 83.2 µM (inactive)
EKVX
  GI50: 94.8 µM (inactive)
RXF 393
  GI50: > 100 µM (inactive)
CAKI-1
  GI50: > 100 µM (inactive)
786-0
  GI50: 28.4 µM (inactive)
MDA-MB-435
  GI50: > 100 µM (inactive)
HCT-116
  GI50: > 100 µM (inactive)
HOP-92
  GI50: > 100 µM (inactive)
SF-268
  GI50: > 100 µM (inactive)
HCC 2998
  GI50: > 100 µM (inactive)

## Cc1nc(Nc2ccccc2Cl)sc1C(=O)CC(=O)C(=O)Nc1c(Cl)cccc1Cl
SK-OV-3
  GI50: 29.1 µM (inactive)
NCI-H460
  GI50: 34.5 µM (inactive)
COLO 205
  GI50: 18.6 µM (inactive)
IGROV-1
  GI50: 15.8 µM (inactive)
A549
  GI50: 24.9 µM (inactive)
SR
  GI50: 31.2 µM (inactive)
OVCAR-5
  GI50: 24.9 µM (inactive)
SK-MEL-5
  GI50: 31.7 µM (inactive)
PC-3
  GI50: 27.3 µM (inactive)
HOP-62
  GI50: 22.8 µM (inactive)
UACC-62
  GI50: 45.6 µM (inactive)
MCF7
  GI50: 28.2 µM (inactive)
CCRF-CEM
  GI50: 28.4 µM (inactive)
MDA-N
  GI50: 40 µM (inactive)
ACHN
  GI50: 45 µM (inactive)
TK-10
  GI50: > 100 µM (inactive)
K562
  GI50: 41.8 µM (inactive)
OVCAR-8
  GI50: 29.4 µM (inactive)
HT-29
  GI50: 25.4 µM (inactive)
NCI-H226
  GI50: 17.5 µM (inactive)
MDA-MB-231
  GI50: 13.6 µM (inactive)
NCI-H23
  GI50: 50.1 µM (inactive)
M14
  GI50: 29.9 µM (inactive)
NCI-H522
  GI50: 19.3 µM (inactive)
HL-60
  GI50: 8.95 µM (inactive)
SF-295
  GI50: 27.5 µM (inactive)
DU-145
  GI50: 27 µM (inactive)
SF-539
  GI50: 26.9 µM (inactive)
Hs-578T
  GI50: 25.2 µM (inactive)
T47D
  GI50: 22.8 µM (inactive)
SK-MEL-2
  GI50: 16.1 µM (inactive)
SK-MEL-28
  GI50: 26.2 µM (inactive)
NCI/ADR-RES
  GI50: 22.3 µM (inactive)
SNB-19
  GI50: 63.8 µM (inactive)
SW-620
  GI50: 26.5 µM (inactive)
OVCAR-4
  GI50: 49.1 µM (inactive)
RPMI-8226
  GI50: 28.2 µM (inactive)
UACC-257
  GI50: 44.4 µM (inactive)
SN12C
  GI50: 44 µM (inactive)
OVCAR-3
  GI50: 17.4 µM (inactive)
UO-31
  GI50: 23 µM (inactive)
SNB-75
  GI50: 24.4 µM (inactive)
U-251
  GI50: 24.9 µM (inactive)
HCT-15
  GI50: 33.3 µM
MOLT-4
  GI50: 24 µM (inactive)
KM12
  GI50: 25.4 µM (inactive)
BT-549
  GI50: 24.2 µM (inactive)
LOX IMVI
  GI50: 27.4 µM (inactive)
EKVX
  GI50: 17.9 µM (inactive)
RXF 393
  GI50: 23.4 µM (inactive)
CAKI-1
  GI50: 84.1 µM (inactive)
786-0
  GI50: 24.3 µM (inactive)
MDA-MB-435
  GI50: 22.9 µM (inactive)
HCT-116
  GI50: 18.8 µM (inactive)
HOP-92
  GI50: 20.6 µM (inactive)
SF-268
  GI50: 35.6 µM (inactive)
HCC 2998
  GI50: 39.5 µM (inactive)

## CC1=CC(=O)N(n2c(Cc3ccc(Cl)cc3)n[nH]c2=O)C1=O
SK-OV-3
  GI50: > 100 µM (inactive)
NCI-H460
  GI50: 36.1 µM (inactive)
COLO 205
  GI50: 71.3 µM (inactive)
IGROV-1
  GI50: 83.4 µM (inactive)
A549
  GI50: 77.6 µM (inactive)
SR
  GI50: 15.9 µM (inactive)
OVCAR-5
  GI50: > 100 µM (inactive)
SK-MEL-5
  GI50: 46 µM (inactive)
PC-3
  GI50: 26.4 µM (inactive)
UACC-62
  GI50: 19.3 µM (inactive)
MCF7
  GI50: 30.5 µM (inactive)
CCRF-CEM
  GI50: 7.91 µM (inactive)
MDA-N
  GI50: 44.7 µM (inactive)
ACHN
  GI50: 82 µM (inactive)
TK-10
  GI50: 98.9 µM (inactive)
K562
  GI50: 23.3 µM (inactive)
OVCAR-8
  GI50: 55.5 µM (inactive)
HT-29
  GI50: 19.5 µM (inactive)
NCI-H226
  GI50: > 100 µM (inactive)
MDA-MB-231
  GI50: 46.3 µM (inactive)
NCI-H23
  GI50: 92.3 µM (inactive)
M14
  GI50: 47.9 µM (inactive)
NCI-H522
  GI50: 17.4 µM (inactive)
SF-295
  GI50: 28.4 µM (inactive)
DU-145
  GI50: > 100 µM (inactive)
SF-539
  GI50: 39.1 µM (inactive)
Hs-578T
  GI50: 35.4 µM (inactive)
T47D
  GI50: 35.4 µM (inactive)
SK-MEL-2
  GI50: > 100 µM (inactive)
NCI/ADR-RES
  GI50: > 100 µM (inactive)
SNB-19
  GI50: 55.6 µM (inactive)
SW-620
  GI50: 32.5 µM (inactive)
A498
  GI50: 71.8 µM (inactive)
OVCAR-4
  GI50: 38.6 µM (inactive)
RPMI-8226
  GI50: 22.6 µM (inactive)
UACC-257
  GI50: > 100 µM (inactive)
SN12C
  GI50: 81.3 µM (inactive)
OVCAR-3
  GI50: 33.6 µM (inactive)
Malme-3M
  GI50: 94.2 µM (inactive)
UO-31
  GI50: > 100 µM (inactive)
U-251
  GI50: 27.2 µM (inactive)
HCT-15
  GI50: 44.9 µM
MOLT-4
  GI50: 20.8 µM (inactive)
KM12
  GI50: 52.4 µM (inactive)
BT-549
  GI50: 35.3 µM (inactive)
LOX IMVI
  GI50: 27.6 µM (inactive)
EKVX
  GI50: 49 µM (inactive)
RXF 393
  GI50: 8.24 µM (inactive)
CAKI-1
  GI50: 88.3 µM (inactive)
786-0
  GI50: 60.5 µM (inactive)
MDA-MB-435
  GI50: 38.2 µM (inactive)
HCT-116
  GI50: 40.3 µM (inactive)
HOP-92
  GI50: 21.1 µM (inactive)
SF-268
  GI50: 70.1 µM (inactive)
HCC 2998
  GI50: > 100 µM (inactive)
